This is an account of results in patent US20260226060A1, “SALTS AND CRYSTALLINE FORMS OF COMPOUND A, METHODS OF PREPARATION, AND USES THEREOF” (SHENZHEN NEWDEL BIOTECH CO., LTD., priority 2023, published 2026).

Holding throughout (format): physicochemical
Series [1] in a line: Short-term physical stability of anhydrous crystal forms (40° C./75% RH, open, 1 day; XRPD). An excerpt: In addition to the mesylate crystalline form I, the other anhydrous crystalline forms were stable under high humidity conditions.
Series [2] is described as follows: Dynamic vapor sorption (DVS) hygroscopicity. The method, then:
The water vapor sorption/desorption data of the samples were collected on a dynamic vapor sorption instrument (proUmid GmbH & Co. KG, Germany). Approximately 50-70 mg of sample was placed in a sample pan previously tared and the weight of the sample was measured accurately.

Series [3] can be described thus: Rough solubility of free base starting material, visually evaluated by solvent addition. The text has this: The rough solubility test of free base of compound A was visually evaluated by solvent addition, and the results were summarized in Table 1.
Series [4] in a line: Solid state stability at 60° C. (closed) and 40° C./75% RH (open), XRPD and HPLC purity. How it is done: (closed) and 40° C./75 RH (open) for 14 days, XRPD analysis and purity analysis were performed at various points of time, and solid-state stability was evaluated.
(§1) HPLC analysis was performed by using an Agilent HPLC 1260 series instrument and the HPLC methods used for solubility and stability determinations were shown in Tables 33 and 34, respectively.

Series [5] in a line: Solubility analysis in biological solvents (SGF, FaSSIF, FeSSIF) and water, with pH and XRPD of residual solid. How it is done:
as §1

≈ marks a conversion by molar mass, not a printed value. A value given as a limit tells only on which side of the number the result lay.

Turning to `Cc1c(C#Cc2cnc3ccc(N4CCC(O)CC4)nn23)cccc1C(=O)Nc1cc(Cl)cc(C(F)(F)F)c1` [Mesylate crystalline form I], in series [1], the “XPRD Results after short-term physical stability” value (shortened to “XPRD Results”) is “new crystalline form” and the “stability of crystalline form under high humidity conditions” value is on record as “unstable”.

As to `Cc1c(C#Cc2cnc3ccc(N4CCC(O)CC4)nn23)cccc1C(=O)Nc1cc(Cl)cc(C(F)(F)F)c1` [Besylate crystalline form I], the “XPRD Results” value in series [1] is “unchanged”.

As to `Cc1c(C#Cc2cnc3ccc(N4CCC(O)CC4)nn23)cccc1C(=O)Nc1cc(Cl)cc(C(F)(F)F)c1` [Oxalate crystalline form I], the “XPRD Results” value in series [1] was “unchanged”.

On to `Cc1c(C#Cc2cnc3ccc(N4CCC(O)CC4)nn23)cccc1C(=O)Nc1cc(Cl)cc(C(F)(F)F)c1` [L-camphor sulfonate crystalline form II], for which the “hygroscopicity (DVS)” value in series [2] is given as “slightly hygroscopic”. Besides, the “DVS The weight gains by vapor sorption %” value in series [2] (80% RH) is 0.8%; in series [2] (90% RH), 1.2%. Moreover, the “XPRD Results” value in series [1] was “unchanged”.

On to `Cc1c(C#Cc2cnc3ccc(N4CCC(O)CC4)nn23)cccc1C(=O)Nc1cc(Cl)cc(C(F)(F)F)c1` [Free base crystalline form I], for which the Solubility in series [3] (2-methyltetrahydrofuran, organic solvent or mixture, thermodynamic from solid, 2-methyltetrahydrofuran, read-out: Solubility) is more than 50 mg/mL; in series [3] (2-methyltetrahydrofuran, listed as starting material), 50 to 100 mg/mL; in series [3] (acetone, organic solvent or mixture, thermodynamic from solid, acetone, read-out: Solubility), 20 to 50 mg/mL (≈ 36.1 to 90.3 mM); in series [3] (acetonitrile, organic solvent or mixture, thermodynamic from solid, acetonitrile, read-out: Solubility) it was 1 to 5 mg/mL (≈ 1.81 to 9.03 mM); in series [3] (acetonitrile/water, 19/1 (v/v), organic solvent or mixture, thermodynamic from solid, acetonitrile/water, 19/1 (v/v), read-out: Solubility), 3 to 5 mg/mL (≈ 5.42 to 9.03 mM); in series [3] (butanone, organic solvent or mixture, thermodynamic from solid, butanone, read-out: Solubility), more than 50 mg/mL. Besides, the Solubility in series [3] (butanone, listed as starting material) lay within 50 to 100 mg/mL; in series [3] (dichloromethane, organic solvent or mixture, thermodynamic from solid, dichloromethane, read-out: Solubility) it was 3 to 5 mg/mL (≈ 5.42 to 9.03 mM); in series [3] (ethanol, organic solvent or mixture, thermodynamic from solid, ethanol, read-out: Solubility), 5 to 20 mg/mL (≈ 9.03 to 36.1 mM); in series [3] (ethyl acetate, organic solvent or mixture, thermodynamic from solid, ethyl acetate, read-out: Solubility), 5 to 20 mg/mL (≈ 9.03 to 36.1 mM); in series [3] (isopropanol, organic solvent or mixture, thermodynamic from solid, isopropanol, read-out: Solubility), 20 to 50 mg/mL (≈ 36.1 to 90.3 mM); in series [3] (isopropyl acetate, organic solvent or mixture, thermodynamic from solid, isopropyl acetate, read-out: Solubility) it was 5 to 20 mg/mL (≈ 9.03 to 36.1 mM). Moreover, the Solubility is 3 to 5 mg/mL (≈ 5.42 to 9.03 mM) in series [3] (methanol, organic solvent or mixture, thermodynamic from solid, methanol, read-out: Solubility); 5 to 20 mg/mL (≈ 9.03 to 36.1 mM) in series [3] (methyl isobutyl ketone, organic solvent or mixture, thermodynamic from solid, methyl isobutyl ketone, read-out: Solubility); 2 to 5 mg/mL (≈ 3.61 to 9.03 mM) in series [3] (methyl tert-butyl ether, organic solvent or mixture, thermodynamic from solid, methyl tert-butyl ether, read-out: Solubility); less than 1 mg/mL in series [3] (n-heptane, organic solvent or mixture, thermodynamic from solid, n-heptane, read-out: Solubility); less than 1 mg/mL in series [3] (n-heptane, listed as starting material); more than 50 mg/mL in series [3] (tetrahydrofuran, organic solvent or mixture, thermodynamic from solid, tetrahydrofuran, read-out: Solubility). In addition, the Solubility in series [3] (tetrahydrofuran, listed as starting material) was more than 100 mg/mL; in series [3] (toluene, organic solvent or mixture, thermodynamic from solid, toluene, read-out: Solubility), less than 1 mg/mL; in series [3] (toluene, listed as starting material), less than 1 mg/mL; in series [3] (water, thermodynamic from solid, water, read-out: Solubility), less than 1 mg/mL; in series [3] (water, listed as starting material) it was less than 1 mg/mL; in series [5] (FaSSIF, 0.5 h, 37° C., target 5 mg/mL) it was 0.014 mg/mL (≈ 0.0253 mM). Also, the Solubility in series [5] (FaSSIF, 0.5 h, 37° C., target 5 mg/mL, listed as free base crystalline form I) is recorded as 0.014 mg/mL (≈ 0.0253 mM); in series [5] (FaSSIF, 2 h, 37° C., target 5 mg/mL) it was 0.013 mg/mL (≈ 0.0235 mM); in series [5] (FaSSIF, 2 h, 37° C., target 5 mg/mL, listed as free base crystalline form I), 0.013 mg/mL (≈ 0.0235 mM); in series [5] (FaSSIF, 24 h, 37° C., target 5 mg/mL) it was 0.011 mg/mL (≈ 0.0199 mM); in series [5] (FeSSIF, 0.5 h, 37° C., target 5 mg/mL) it was 0.181 mg/mL (≈ 0.327 mM); in series [5] (FeSSIF, 0.5 h, 37° C., target 5 mg/mL, listed as free base crystalline form I), 0.181 mg/mL (≈ 0.327 mM). Further, the Solubility in series [5] (FeSSIF, 2 h, 37° C., target 5 mg/mL) is listed as 0.221 mg/mL (≈ 0.399 mM); in series [5] (FeSSIF, 2 h, 37° C., target 5 mg/mL, listed as free base crystalline form I) it was 0.221 mg/mL (≈ 0.399 mM); in series [5] (FeSSIF, 24 h, 37° C., target 5 mg/mL), 0.418 mg/mL (≈ 0.755 mM); in series [5] (SGF, 0.5 h, 37° C., target 5 mg/mL), “<LOD”; in series [5] (SGF, 0.5 h, 37° C., target 5 mg/mL, listed as free base crystalline form I), “<LOD/<LOD/”; in series [5] (SGF, 2 h, 37° C., target 5 mg/mL) it was “<LOD”. The Solubility entry in series [5] (SGF, 2 h, 37° C., target 5 mg/mL, listed as free base crystalline form I) is given as “<LOD/<LOD/”; in series [5] (SGF, 24 h, 37° C., target 5 mg/mL), “<LOD”; in series [5] (water, 0.5 h, 37° C., target 5 mg/mL), “<LOD/<LOD/”; in series [5] (water, 2 h, 37° C., target 5 mg/mL) it was “<LOD/<LOD/”; in series [5] (water, 24 h, 37° C., target 5 mg/mL) it was “<LOD”. For the same compound, in series [2], the “crystalline form after DVS analysis (XRPD)” value is “remained unchanged”. The “hygroscopicity (DVS)” value in series [2] was “slightly hygroscopic”. Besides, the “DVS The weight gains by vapor sorption %” value in series [2] (80% RH) is 0.8%; in series [2] (90% RH), 0.9%; in series [2] (90% RH, listed as free base crystalline form I) it was approximately 0.9%. Besides, the “Purity in stability evaluation” value in series [4] (0 d) was found to be 98.63 Area %; in series [4] (7 d-40° C./75% RH), 98.60 Area %; in series [4] (7 d-60° C./capped), 98.61 Area %; in series [4] (14 d-40° C./75% RH), 98.61 Area %; in series [4] (14 d-60° C./capped), 98.70 Area %. Besides, in series [4] (60° C./Closed and 40° C./75% RH (Open), 14 days), the “Solid state stability-14 days” value was “physically and chemically stable”. Also, the “XRPD in stability evaluation” value in series [4] (7 d-40° C./75% RH), in series [4] (7 d-60° C./capped), in series [4] (14 d-40° C./75% RH) and in series [4] (14 d-60° C./capped) was “unchanged” in each case. Besides, the “pH in solubility analysis” value in series [5] (FaSSIF (medium pH 6.5), 0.5 h) turned out to be 6.4; in series [5] (FaSSIF (medium pH 6.5), 2 h) it was 6.3; in series [5] (FaSSIF (medium pH 6.5), 24 h), 6.4; in series [5] (FeSSIF (medium pH 5.0), 0.5 h) it was 5.0; in series [5] (FeSSIF (medium pH 5.0), 2 h), 5.0; in series [5] (FeSSIF (medium pH 5.0), 24 h) it was 5.1. The “pH in solubility analysis” value in series [5] (SGF (medium pH 1.2), 0.5 h) is given as 1.3; in series [5] (SGF (medium pH 1.2), 2 h), 1.4; in series [5] (SGF (medium pH 1.2), 24 h) it was 1.2; in series [5] (water (medium pH 6.6), 0.5 h), 6.6; in series [5] (water (medium pH 6.6), 2 h) it was 6.5; in series [5] (water (medium pH 6.6), 24 h), 6.4. Also, the “XRPD of residual solid in solubility analysis” value in series [5] (FaSSIF, 0.5 h) is on record as “unchanged”; in series [5] (FaSSIF, 24 h), “unchanged”; in series [5] (FeSSIF, 0.5 h) it was “unchanged”; in series [5] (FeSSIF, 24 h), “unchanged”; in series [5] (SGF, 0.5 h), “unchanged”; in series [5] (SGF, after 2 h), “amorphous”. The “Solid form of residual solids in solubility analysis” value in series [5] (summary over water, SGF, FaSSIF, FeSSIF) was “remained unchanged in water, FaSSIF and FeSSIF”.

Turning to `Cc1c(C#Cc2cnc3ccc(N4CCC(O)CC4)nn23)cccc1C(=O)Nc1cc(Cl)cc(C(F)(F)F)c1` [Compound A, N-(3-chloro-5-(trifluoromethyl)phenyl)-3-((6-(4-hydroxypiperidin-1-yl)imidazo [1,2-b]pyridazin-3-yl)ethynyl)-2-methylbenzamide], the Solubility in series [5] (FeSSIF, 37 °C, pH 5, fessif, thermodynamic from solid, FeSSIF, read-out: solubility) was 0.2 to 1.9 mg/mL (≈ 0.361 to 3.43 mM); in series [5] (SGF and water), “< LOD”.

Usually Solubility stands for the dissolved amount per volume that the medium holds.
